Experimental data: ChEMBL document CHEMBL5576049, “Synthesis and cytotoxicity of novel 6,8,9-trisubstituted purine analogs against liver cancer cells” (Bioorg Med Chem Lett, 2024)
Calls of active or inactive are those of the source. The rule behind the calls is not given here.

Experiments:
Assay type in all cases: functional, cell-based
Huh-7 = assay: Cytotoxicity against human Huh-7 cells assessed as cell growth inhibition incubated for 72 hrs by SRB assay; conditions: for IC50: Huh-7, 72 h
MCF7 = assay: Cytotoxicity against human MCF7 cells assessed as cell growth inhibition incubated for 72 hrs by SRB assay; conditions: for IC50: MCF7, 72 h
HCT-116 = assay: Cytotoxicity against human HCT-116 cells assessed as cell growth inhibition incubated for 72 hrs by SRB assay; conditions: for IC50: HCT-116, 72 h
SNU-423 = assay: Cytotoxicity against human SNU-423 cells assessed as cell growth inhibition incubated for 72 hrs by SRB assay; conditions: SNU-423, 72 h
SNU-398 = assay: Cytotoxicity against human SNU-398 cells assessed as cell growth inhibition incubated for 72 hrs by SRB assay; conditions: SNU-398, 72 h
SNU-449 = assay: Cytotoxicity against human SNU-449 cells assessed as cell growth inhibition incubated for 72 hrs by SRB assay; conditions: SNU-449, 72 h
[1] = Cytotoxicity against human FOCUS cells assessed as cell growth inhibition incubated for 72 hrs by SRB assay
SNU-475 = assay: Cytotoxicity against human SNU-475 cells assessed as cell growth inhibition by SRB assay
SNU-387 = assay: Cytotoxicity against human SNU-387 cells assessed as cell growth inhibition incubated for 72 hrs by SRB assay; conditions: SNU-387, 72 h
Mahlavu = assay: Cytotoxicity against human Mahlavu cells assessed as cell growth inhibition incubated for 72 hrs by SRB assay
HepG2 = assay: Cytotoxicity against human HepG2 cells assessed as cell growth inhibition incubated for 72 hrs by SRB assay; conditions: HepG2, 72 h
SNU-182 = assay: Cytotoxicity against human SNU-182 cells assessed as cell growth inhibition incubated for 72 hrs by SRB assay; conditions: SNU-182, 72 h
PLC = assay: Cytotoxicity against human PLC cells assessed as cell growth inhibition incubated for 72 hrs by SRB assay
Hep 3B2 = assay: Cytotoxicity against human Hep3B cells assessed as cell growth inhibition incubated for 72 hrs by SRB assay

Row | Compound | IC50 (Huh-7) [µM] | IC50 (MCF7) [µM] | IC50 (HCT-116) [µM] | Activity (HCT-116) | further results
1 | Brc1ccc(-c2nc3c(N4CCN(c5ccccc5)CC4)ncnc3n2C2CCCC2)cc1 | 11.1 | 15 | 28.8 |  | 
2 | Cc1ccc(-c2nc3c(N4CCN(c5ccc(Cl)cc5)CC4)ncnc3n2C2CCCC2)cc1 | 61.8 |  |  | inactive | Activity (MCF7): inactive
3 | Cc1ccc(-c2nc3c(N4CCN(c5ccc(C)cc5)CC4)ncnc3n2C2CCCC2)cc1 | 17.4 | 47.5 | 33.4 |  | 
4 | Cc1ccc(-c2nc3c(N4CCN(c5ccc(C(F)(F)F)cc5)CC4)ncnc3n2C2CCCC2)cc1 | 13.1 | 26.2 | 34.3 |  | 
5 | FC(F)(F)c1ccc(-c2nc3c(N4CCN(c5ccc(Cl)cc5)CC4)ncnc3n2C2CCCC2)cc1 | 61.4 | 57.9 |  | inactive | 
6 | Fc1ccc(-c2nc3c(N4CCN(c5ccc(Cl)cc5)CC4)ncnc3n2C2CCCC2)cc1 | 20.2 |  | 51.4 |  | Activity (MCF7): inactive
7 | COc1ccc(-c2nc3c(N4CCN(c5ccccc5)CC4)ncnc3n2C2CCCC2)cc1 | 57.1 |  | 42.3 |  | Activity (MCF7): inactive
8 | FC(F)(F)c1ccc(-c2nc3c(N4CCN(c5ccc(Cl)c(Cl)c5)CC4)ncnc3n2C2CCCC2)cc1 | 35.1 | 7.2 |  | inactive | 
9 | FC(F)(F)c1ccc(-c2nc3c(N4CCN(c5ccc(C(F)(F)F)cc5)CC4)ncnc3n2C2CCCC2)cc1 | 9.3 | 6.1 | 10.8 |  | IC50 (SNU-423): 24.9 µM; IC50 (SNU-398): 19 µM; IC50 (SNU-449): 60.6 µM; IC50 [1]: 4.5 µM; IC50 (SNU-475): 17 µM; IC50 (SNU-387): 98.7 µM; IC50 (Mahlavu): 19.8 µM; IC50 (HepG2): 6.6 µM; IC50 (SNU-182): 16.4 µM; IC50 (PLC): 99.1 µM; IC50 (Hep 3B2): 10.3 µM
10 | Clc1ccc(-c2nc3c(N4CCN(c5ccc(Cl)cc5)CC4)ncnc3n2C2CCCC2)cc1 | 39 | 35.8 | 64.9 |  | 
11 | Fc1ccc(-c2nc3c(N4CCN(c5ccc(C(F)(F)F)cc5)CC4)ncnc3n2C2CCCC2)cc1 | 11.4 | 32.4 | 13.5 |  | 
12 | FC(F)(F)c1ccc(N2CCN(c3ncnc4c3nc(-c3ccc(Br)cc3)n4C3CCCC3)CC2)cc1 | 58.1 | 17.4 | 58.5 |  | 
13 | Cc1ccc(-c2nc3c(N4CCN(c5ccccc5)CC4)ncnc3n2C2CCCC2)cc1 | 12.9 | 21.4 | 18.8 |  | 
14 | Clc1ccc(-c2nc3c(N4CCN(c5ccc(Cl)c(Cl)c5)CC4)ncnc3n2C2CCCC2)cc1 | 58.7 |  |  | inactive | Activity (MCF7): inactive
15 | COc1ccc(-c2nc3c(N4CCN(c5ccc(Cl)c(Cl)c5)CC4)ncnc3n2C2CCCC2)cc1 | 7.4 | 30.6 | 33.6 |  | 
16 | Fc1ccc(-c2nc3c(N4CCN(c5ccc(Cl)c(Cl)c5)CC4)ncnc3n2C2CCCC2)cc1 | 30 |  | 50.6 |  | Activity (MCF7): inactive
17 | FC(F)(F)c1ccc(N2CCN(c3ncnc4c3nc(-c3ccc(Cl)cc3)n4C3CCCC3)CC2)cc1 | 19.4 | 30.3 |  | inactive | 

Row | Compound | IC50 (Huh-7) [µM] | IC50 (MCF7) [µM] | IC50 (HCT-116) [µM] | Activity (HCT-116) | further results
18 | FC(F)(F)c1ccc(-c2nc3c(N4CCN(c5ccccc5)CC4)ncnc3n2C2CCCC2)cc1 | 7.6 | 25.9 | 25.3 |  | 
19 | Cc1ccc(-c2nc3c(N4CCN(c5ccc(Cl)c(Cl)c5)CC4)ncnc3n2C2CCCC2)cc1 |  |  |  | inactive | Activity (Huh-7): inactive; Activity (MCF7): inactive
20 | COc1ccc(-c2nc3c(N4CCN(c5ccc(C)cc5)CC4)ncnc3n2C2CCCC2)cc1 |  | 58.4 |  | inactive | Activity (Huh-7): inactive
21 | COc1ccc(-c2nc3c(N4CCN(c5ccc(C(F)(F)F)cc5)CC4)ncnc3n2C2CCCC2)cc1 | 9.8 |  |  | inactive | Activity (MCF7): inactive
22 | Clc1ccc(N2CCN(c3ncnc4c3nc(-c3ccc(Br)cc3)n4C3CCCC3)CC2)cc1 |  | 51.6 |  | inactive | Activity (Huh-7): inactive
23 | Clc1ccc(-c2nc3c(N4CCN(c5ccccc5)CC4)ncnc3n2C2CCCC2)cc1 | 23.2 | 19.8 | 5.8 |  | 
24 | O=c1[nH]cc(F)c(=O)[nH]1 [FLUOROURACIL] |  |  | 4.1 |  | 
25 | Cc1ccc(N2CCN(c3ncnc4c3nc(-c3ccc(Br)cc3)n4C3CCCC3)CC2)cc1 | 28.4 | 24.8 | 52.3 |  | 
26 | Cc1ccc(N2CCN(c3ncnc4c3nc(-c3ccc(Cl)cc3)n4C3CCCC3)CC2)cc1 | 15.7 | 21.6 | 6.5 |  | 
27 | Cc1ccc(N2CCN(c3ncnc4c3nc(-c3ccc(F)cc3)n4C3CCCC3)CC2)cc1 | 20.8 |  | 26.1 |  | Activity (MCF7): inactive
28 | Clc1ccc(N2CCN(c3ncnc4c3nc(-c3ccc(Br)cc3)n4C3CCCC3)CC2)cc1Cl |  | 60.7 |  | inactive | Activity (Huh-7): inactive
29 | Nc1nc(F)nc2c1ncn2[C@@H]1O[C@H](CO)[C@@H](O)[C@@H]1O [FLUDARABINE] | 28.4 |  |  |  | 
30 | Fc1ccc(-c2nc3c(N4CCN(c5ccccc5)CC4)ncnc3n2C2CCCC2)cc1 | 11.4 | 68.2 | 13.7 |  | 
31 | Nc1nc(Cl)nc2c1ncn2[C@H]1C[C@H](O)[C@@H](CO)O1 [CLADRIBINE] | 0.9 | 2.4 | < 0.1 |  | IC50 (SNU-398): < 0.1 µM; IC50 [1]: < 0.1 µM; IC50 (Mahlavu): < 0.1 µM
32 | Cc1ccc(N2CCN(c3ncnc4c3nc(-c3ccc(C(F)(F)F)cc3)n4C3CCCC3)CC2)cc1 | 16.1 | 30.1 | 46.2 |  | 
33 | COc1ccc(-c2nc3c(N4CCN(c5ccc(Cl)cc5)CC4)ncnc3n2C2CCCC2)cc1 | 5.5 | 69.8 | 30.9 |  | 
